Measurements reported in patent publication US20200170975A1 (Strongbridge Dublin Limited, priority 2018, published 2020).
pIC50: −log10 of the molar value. Read-outs that look alike come from different tables or passages of the source.

Legend:
[1] = biological target: T1, MATE1 (Homo sapiens, UniProt Q96FL8); conditions: for % control / Background corrected uptake rate: HEK293 cells; for Uptake, MATE1 (Average ± SD): MATE1 HEK293 cells; for Uptake, Control (Average ± SD): control HEK293 cells
T1 sequence (Q96FL8 1-570): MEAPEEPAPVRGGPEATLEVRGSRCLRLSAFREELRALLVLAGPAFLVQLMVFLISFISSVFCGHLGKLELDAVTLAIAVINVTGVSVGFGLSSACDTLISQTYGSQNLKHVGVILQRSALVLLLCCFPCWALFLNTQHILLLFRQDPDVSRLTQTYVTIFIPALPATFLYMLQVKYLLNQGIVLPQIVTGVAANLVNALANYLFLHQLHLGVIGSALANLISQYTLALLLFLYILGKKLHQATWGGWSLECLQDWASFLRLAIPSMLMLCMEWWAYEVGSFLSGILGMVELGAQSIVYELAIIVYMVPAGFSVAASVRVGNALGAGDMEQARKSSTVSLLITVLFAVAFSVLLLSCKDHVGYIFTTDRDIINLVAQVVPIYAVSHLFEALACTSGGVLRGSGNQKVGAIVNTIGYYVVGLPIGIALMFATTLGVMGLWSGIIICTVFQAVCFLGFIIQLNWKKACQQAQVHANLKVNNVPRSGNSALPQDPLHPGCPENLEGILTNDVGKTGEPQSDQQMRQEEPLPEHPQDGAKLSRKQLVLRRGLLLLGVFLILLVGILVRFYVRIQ
Procedure: (§1) [^14C]-Metformin (1 mM) was provided as a solid and was prepared in Hank's balanced salt solution (HBSS).
(§2) Cells were plated onto standard 24-well tissue culture plates in cell culture medium 1 to 3 days before the experiment. MATE1 and MATE2-K and control cells were incubated with butyric acid (10 mM) for 24 hours before the experiment to inhibit suppression of the transporter.

[2] = biological target: MATE2-K (Homo sapiens, UniProt Q86VL8); conditions: for Uptake, MATE2-K (Average ± SD): MATE2-K HEK293 cells; for Uptake, MATE2-K (Average ± SD) / % control / Background corrected uptake rate / Uptake, Control (Average ± SD): [14C]-Metformin 10 μM; for Uptake, Control (Average ± SD): control HEK293 cells
Procedure: as §1, §2

[3] = biological target: P-gp (Homo sapiens, UniProt P08183)
[4] = biological target: T2, OAT2 (Homo sapiens, UniProt Q9Y694); assay: OAT2 inhibition: accumulation of [3H]-PGE2 in S2 cells; assay type: in vitro ADME
T2 construct: expressed in transfected cells; host or cells: S2 cells
T2 sequence (Q9Y694 1-548): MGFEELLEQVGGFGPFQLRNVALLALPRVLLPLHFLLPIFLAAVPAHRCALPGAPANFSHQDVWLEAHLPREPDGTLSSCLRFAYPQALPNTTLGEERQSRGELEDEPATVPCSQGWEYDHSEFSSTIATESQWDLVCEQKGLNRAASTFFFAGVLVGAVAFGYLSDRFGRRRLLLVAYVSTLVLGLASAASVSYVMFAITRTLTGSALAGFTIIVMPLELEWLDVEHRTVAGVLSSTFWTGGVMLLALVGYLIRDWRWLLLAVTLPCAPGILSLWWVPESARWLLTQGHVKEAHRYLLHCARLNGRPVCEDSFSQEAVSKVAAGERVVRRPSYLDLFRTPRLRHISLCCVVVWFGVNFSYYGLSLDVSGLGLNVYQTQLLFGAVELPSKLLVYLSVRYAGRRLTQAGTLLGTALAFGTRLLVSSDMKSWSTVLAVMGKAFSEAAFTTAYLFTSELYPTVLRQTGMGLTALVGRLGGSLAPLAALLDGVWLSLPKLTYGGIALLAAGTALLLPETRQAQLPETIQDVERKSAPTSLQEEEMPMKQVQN
Procedure: Schneider 2 (S2) cells are a commonly used Drosophila melanogaster cell lines from a primary culture of late stage (20-24 hours old) embryos from a macrophage-like lineage. S2 cells are used to express heterologous proteins, to produce proteins on a large scale, and to easily and transiently transfect with several plasmids at once to study protein interactions.
as §1

Sequence of MATE2-K (Q86VL8 1-566 isoform Q86VL8-3): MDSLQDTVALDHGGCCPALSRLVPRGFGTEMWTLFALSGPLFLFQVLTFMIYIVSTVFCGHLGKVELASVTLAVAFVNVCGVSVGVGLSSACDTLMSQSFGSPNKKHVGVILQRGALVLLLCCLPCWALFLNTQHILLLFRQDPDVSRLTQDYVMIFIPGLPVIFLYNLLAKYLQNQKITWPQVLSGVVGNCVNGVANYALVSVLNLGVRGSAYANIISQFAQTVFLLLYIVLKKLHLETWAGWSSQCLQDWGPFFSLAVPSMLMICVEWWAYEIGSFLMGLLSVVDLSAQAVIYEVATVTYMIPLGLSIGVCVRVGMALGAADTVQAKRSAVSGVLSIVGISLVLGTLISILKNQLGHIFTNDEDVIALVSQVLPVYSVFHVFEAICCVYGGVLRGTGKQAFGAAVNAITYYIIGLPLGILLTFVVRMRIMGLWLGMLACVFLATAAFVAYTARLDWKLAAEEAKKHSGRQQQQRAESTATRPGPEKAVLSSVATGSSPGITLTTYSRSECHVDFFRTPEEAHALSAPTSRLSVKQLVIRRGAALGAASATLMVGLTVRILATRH
Sequence of P-gp (P08183 whole entry): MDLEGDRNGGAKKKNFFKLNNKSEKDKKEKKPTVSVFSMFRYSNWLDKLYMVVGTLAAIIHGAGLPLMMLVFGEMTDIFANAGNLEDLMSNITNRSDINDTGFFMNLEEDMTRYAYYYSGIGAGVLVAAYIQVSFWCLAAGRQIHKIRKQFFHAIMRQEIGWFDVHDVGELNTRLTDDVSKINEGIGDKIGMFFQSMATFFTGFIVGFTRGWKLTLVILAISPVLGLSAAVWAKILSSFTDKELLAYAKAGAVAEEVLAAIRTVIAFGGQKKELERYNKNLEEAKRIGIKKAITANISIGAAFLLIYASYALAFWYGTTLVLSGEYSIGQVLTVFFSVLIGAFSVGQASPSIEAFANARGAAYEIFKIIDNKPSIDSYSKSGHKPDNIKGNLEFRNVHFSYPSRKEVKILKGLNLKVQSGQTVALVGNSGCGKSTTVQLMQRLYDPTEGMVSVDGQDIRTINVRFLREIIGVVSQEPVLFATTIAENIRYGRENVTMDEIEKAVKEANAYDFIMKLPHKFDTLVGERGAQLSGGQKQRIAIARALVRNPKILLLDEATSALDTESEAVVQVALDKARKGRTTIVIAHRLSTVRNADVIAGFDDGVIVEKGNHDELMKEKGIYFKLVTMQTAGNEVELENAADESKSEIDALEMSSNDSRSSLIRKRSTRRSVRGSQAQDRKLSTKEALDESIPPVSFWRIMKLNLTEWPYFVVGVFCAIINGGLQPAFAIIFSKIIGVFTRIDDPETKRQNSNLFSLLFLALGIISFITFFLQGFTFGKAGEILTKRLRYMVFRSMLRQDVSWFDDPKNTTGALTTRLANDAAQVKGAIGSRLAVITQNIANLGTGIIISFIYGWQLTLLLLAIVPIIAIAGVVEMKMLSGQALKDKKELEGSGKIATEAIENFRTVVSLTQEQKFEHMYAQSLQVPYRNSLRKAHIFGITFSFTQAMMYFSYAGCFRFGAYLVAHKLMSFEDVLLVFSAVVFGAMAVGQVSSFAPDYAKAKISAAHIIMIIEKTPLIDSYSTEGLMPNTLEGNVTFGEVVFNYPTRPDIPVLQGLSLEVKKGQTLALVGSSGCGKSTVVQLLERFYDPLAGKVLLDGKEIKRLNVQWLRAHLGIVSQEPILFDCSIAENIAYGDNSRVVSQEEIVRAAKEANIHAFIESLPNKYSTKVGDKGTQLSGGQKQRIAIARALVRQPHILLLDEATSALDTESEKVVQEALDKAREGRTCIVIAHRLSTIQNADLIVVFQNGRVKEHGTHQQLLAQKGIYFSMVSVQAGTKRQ

NS(=O)(=O)c1cc(Cl)c(Cl)c(S(N)(=O)=O)c1 [Dichlorphenamide, 4,5-dichloro-1,3-benzenedisulfonamide]
pIC50 [1]: < 3.00 | % control ([1]; inhibitor 1 μm): 104% | Background corrected uptake rate ([1]; inhibitor 1 μm): 85.8 pmol/mg/min | % control ([1]; inhibitor 3 μm): 95.2% | Background corrected uptake rate ([1]; inhibitor 3 μm): 78.8 pmol/mg/min | % control ([1]; inhibitor 10 μm): 96.4% | Background corrected uptake rate ([1]; inhibitor 10 μm): 79.8 pmol/mg/min | % control ([1]; inhibitor 30 μm): 103% | Background corrected uptake rate ([1]; inhibitor 30 μm): 85.0 pmol/mg/min | % control ([1]; inhibitor 100 μm): 99.8% | Background corrected uptake rate ([1]; inhibitor 100 μm): 82.6 pmol/mg/min | % control ([1]; inhibitor 300 μm): 94.7% | Background corrected uptake rate ([1]; inhibitor 300 μm): 78.4 pmol/mg/min | % control ([1]; inhibitor 1000 μm): 90.3% | Background corrected uptake rate ([1]; inhibitor 1000 μm): 74.7 pmol/mg/min | Uptake, MATE1 (Average ± SD) ([1]; inhibitor 1 μm): 436 ± 23 pmol/mg protein | Uptake, MATE1 (Average ± SD) ([1]; inhibitor 3 μm): 401 ± 7 pmol/mg protein | Uptake, MATE1 (Average ± SD) ([1]; inhibitor 10 μm): 406 ± 12 pmol/mg protein | Uptake, MATE1 (Average ± SD) ([1]; inhibitor 30 μm): 432 ± 10 pmol/mg protein | Uptake, MATE1 (Average ± SD) ([1]; inhibitor 100 μm): 421 ± 17 pmol/mg protein | Uptake, MATE1 (Average ± SD) ([1]; inhibitor 300 μm): 398 ± 17 pmol/mg protein | Uptake, MATE1 (Average ± SD) ([1]; inhibitor 1000 μm): 379 ± 13 pmol/mg protein | Uptake, Control (Average ± SD) ([1]; inhibitor 1 μm): 6.66 ± 1.31 pmol/mg protein | Uptake, Control (Average ± SD) ([1]; inhibitor 3 μm): 6.75 ± 1.65 pmol/mg protein | Uptake, Control (Average ± SD) ([1]; inhibitor 10 μm): 7.43 ± 1.34 pmol/mg protein | Uptake, Control (Average ± SD) ([1]; inhibitor 30 μm): 6.79 ± 0.89 pmol/mg protein | Uptake, Control (Average ± SD) ([1]; inhibitor 100 μm): 7.52 ± 0.96 pmol/mg protein | Uptake, Control (Average ± SD) ([1]; inhibitor 300 μm): 5.56 ± 0.16 pmol/mg protein | Uptake, Control (Average ± SD) ([1]; inhibitor 1000 μm): 5.52 ± 0.21 pmol/mg protein | pIC50 ([1]; human, pH 8.5): < 3.00 | pIC50 [2]: < 3.00 | Uptake, MATE2-K (Average ± SD) ([2]; inhibitor 1 μM): 149 ± 29 pmol/mg protein | Uptake, MATE2-K (Average ± SD) ([2]; inhibitor 3 μM): 159 ± 19 pmol/mg protein | Uptake, MATE2-K (Average ± SD) ([2]; inhibitor 10 μM): 113 ± 8 pmol/mg protein | Uptake, MATE2-K (Average ± SD) ([2]; inhibitor 30 μM): 124 ± 36 pmol/mg protein | Uptake, MATE2-K (Average ± SD) ([2]; inhibitor 100 μM): 137 ± 15 pmol/mg protein | Uptake, MATE2-K (Average ± SD) ([2]; inhibitor 300 μM): 166 ± 16 pmol/mg protein | Uptake, MATE2-K (Average ± SD) ([2]; inhibitor 1000 μM): 106 ± 29 pmol/mg protein | % control ([2]; inhibitor 1 μM): 101% | Background corrected uptake rate ([2]; inhibitor 1 μM): 28.0 pmol/mg/min | % control ([2]; inhibitor 3 μM): 108% | Background corrected uptake rate ([2]; inhibitor 3 μM): 29.9 pmol/mg/min | % control ([2]; inhibitor 10 μM): 76.1% | Background corrected uptake rate ([2]; inhibitor 10 μM): 21.0 pmol/mg/min | % control ([2]; inhibitor 30 μM): 83.7% | Background corrected uptake rate ([2]; inhibitor 30 μM): 23.1 pmol/mg/min | % control ([2]; inhibitor 100 μM): 92.4% | Background corrected uptake rate ([2]; inhibitor 100 μM): 25.5 pmol/mg/min | % control ([2]; inhibitor 300 μM): 114% | Background corrected uptake rate ([2]; inhibitor 300 μM): 31.4 pmol/mg/min | % control ([2]; inhibitor 1000 μM): 73.2% | Background corrected uptake rate ([2]; inhibitor 1000 μM): 20.2 pmol/mg/min | Uptake, Control (Average ± SD) ([2]; inhibitor 1 μM): 9.21 ± 0.93 pmol/mg protein | Uptake, Control (Average ± SD) ([2]; inhibitor 3 μM): 9.44 ± 2.27 pmol/mg protein | Uptake, Control (Average ± SD) ([2]; inhibitor 10 μM): 8.28 ± 1.46 pmol/mg protein | Uptake, Control (Average ± SD) ([2]; inhibitor 30 μM): 8.51 ± 1.05 pmol/mg protein | Uptake, Control (Average ± SD) ([2]; inhibitor 100 μM): 9.21 ± 1.52 pmol/mg protein | Uptake, Control (Average ± SD) ([2]; inhibitor 300 μM): 8.86 ± 0.93 pmol/mg protein | Uptake, Control (Average ± SD) ([2]; inhibitor 1000 μM): 5.13 ± 0.40 pmol/mg protein | pIC50 ([2]; human, pH 8.5): < 3.00 | pIC50 [3]: < 3.00 | pIC50 [4]: < 3.00
